Experiments:
Assay type in all cases: in vivo
[1] = system: German cockroaches (Blattella germanica); test: Test Example 3: control test against German cockroaches, spray in chamber; details: adult German cockroaches; 1.5 mL sprayed; concentration [%]: broflanilide 0.02, imiprothrin 0.01, cyfluthrin 0.0016, alone or mixed; 420 minutes after spraying
Source text: Next, the usefulness of the inventive composition for controlling pests will be indicated by Test Examples.
(hereinafter referred to as expected value A)
(hereinafter referred to as expected value B)
In a plastic cup (diameter: 12.4 cm, height: 10.2 cm) lined with a filter paper, ten adult German cockroaches (Blattella germanica) (five males and five females each) were released, and the plastic cup was placed in the center of the bottom of a box-shaped chamber (46 cm×46 cm×70 cm in height). From the height of 60 cm, 1.5 mL of each of formulations prepared by dissolving a single agent of any one of broflanilide, imiprothrin and cyfluthrin, or a mixed agent of two or more thereof in a mixture of isopropyl alcohol and Isopar M at a mixing ratio of 1:9 was sprayed under a spray pressure of 0.041 MPa. After a lapse of 420 minutes from spraying, the number of dead and moribund individuals was examined, and moribund and mortal rates (%) were determined by the above equation 3. The test was performed through two replicates. Dead individuals are completely immobile individuals, and moribund individuals are individuals who cannot get up when turned on their backs.

[2] = system: German cockroaches (Blattella germanica); test: Test Example 2: control test against German cockroaches, spray in chamber; details: adult German cockroaches; 1.5 mL sprayed; concentration [%]: nicofluprole 0.01, imiprothrin 0.01, cypermethrin 0.01, alone or mixed; 120 minutes after spraying
Procedure: (§1) Next, the usefulness of the inventive composition for controlling pests will be indicated by Test Examples. In general, the control effect to be expected when treated with a mixture obtained by mixing given two or three types of active ingredient compounds is determined by the Colby's calculation equation represented by the following [Equation 1] and [Equation 2].
(§2) [formula] • P: moribund and mortal rates (%) when treated with an active ingredient compound X in the concentration of m [ppm] • Q: moribund and mortal rates (%) when treated with an active ingredient compound Y in the concentration of n [ppm] • EA: moribund and mortal rates (%) when treated with an active ingredient compound X in the concentration of m [ppm] and an active ingredient compound Y in the concentration of n [ppm] (hereinafter referred to as expected value A) […]
Regarding the synergistic effect of three types of the active ingredient compounds, in case where the moribund and mortal rates (%) when actually treated with a mixture obtained by mixing three types of the active ingredient compounds exceed the expected value A calculated by using the moribund and mortal rates (%) when actually treated with a mixture obtained by mixing two types of the active ingredient compounds among three types thereof, and the moribund and mortal rates (%) calculated when actually treated the remaining one type of the active ingredient compound, or the expected value B (%) calculated from the moribund and mortal rates (%) when actually treated with each of three types of the active ingredient compounds alone, it was determined that the synergistic effect exists. […]

[3] = system: German cockroaches (Blattella germanica); test: Test Example 1: control test against German cockroaches, spray in chamber (cup without filter paper); details: adult German cockroaches; 1.5 mL sprayed; concentration [%]: broflanilide 0.01, imiprothrin 0.01, cypermethrin 0.01, alone or mixed; 120 minutes after spraying
Procedure: as §1, §2
Regarding the synergistic effect of three types of the active ingredient compounds, in case where the moribund and mortal rates (%) when actually treated with a mixture obtained by mixing three types of the active ingredient compounds exceed the expected value A calculated by using the moribund and mortal rates (%) when actually treated with a mixture obtained by mixing two types of the active ingredient compounds among three types thereof, and the moribund and mortal rates (%) calculated when actually treated the remaining one type of the active ingredient compound, or the expected value B (%) calculated from the moribund and mortal rates (%) when actually treated with each of three types of the active ingredient compounds alone, it was determined that the synergistic effect exists.
In a plastic cup (diameter: 12.4 cm, height: 10.2 cm), ten adult German cockroaches (Blattella germanica) (five males and five females each) were released, and the plastic cup was placed in the center of the bottom of a box-shaped chamber (46 cm×46 cm×70 cm in height). […] After a lapse of 120 minutes from spraying, the number of dead and moribund individuals was examined, and moribund and mortal rates (%) were determined by the equation 3 below. […]

C#CCN1CC(=O)N(COC(=O)[C@@H]2C(C=C(C)C)C2(C)C)C1=O (mixture of isomers) [Imiprothrin, imiprothrin]
15%: Moribund and mortal rates [%] after 420 minutes [1] | Moribund and mortal rates [%] after 120 minutes [2] | Moribund and mortal rates [%] after 120 minutes [3]

Reference: patent US20240373851A1, “PEST CONTROL COMPOSITION AND PEST CONTROL METHOD” (SUMITOMO CHEMICAL COMPANY, LIMITED, priority 2021, published 2024)
